# Data published in US12139492B2 (Endotarget Inc., priority 2021, dated 2024).
# Read-outs that look alike come from different tables or passages of the source.
# Experiments:
# BTK = BTK (Homo sapiens, UniProt Q06187); assay: Degradation of BTK protein in Namalwa cells (Western blot; DC50, Dmax); conditions: for DC50: cell line not given
# Mino cells = assay: Antiproliferative effect, MTS cell viability assay, Mino cells; assay type: cell-based; conditions: Homo sapiens, Mino mantle cell lymphoma cells, read-out: IC50 (anti-proliferation) Mino cells
# How it was run: (§1)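 Readout was MTS-derived formazan absorbance (490 nm) reflecting metabolically active cells. Treatment lasted 72 h over a 0–10 μM range (0.001, 0.01, 0.1, 1, 10 μM) in JeKo-1 and Mino B-cell malignancy cells.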
# JeKo-1 cells = assay: Antiproliferative effect, MTS cell viability assay, JeKo-1 cells; assay type: cell-based; conditions: Homo sapiens; JeKo-1 mantle cell lymphoma cells; read-out: IC50 (anti-proliferation) JeKO-1 cells
# How it was run: as §1
# [1] = read-out: DC50 (BTK degradation), concentration giving 50% reduction of BTK expression level
# [2] = read-out: Dmax (BTK degradation)
# Sequence of BTK (Q06187 whole entry): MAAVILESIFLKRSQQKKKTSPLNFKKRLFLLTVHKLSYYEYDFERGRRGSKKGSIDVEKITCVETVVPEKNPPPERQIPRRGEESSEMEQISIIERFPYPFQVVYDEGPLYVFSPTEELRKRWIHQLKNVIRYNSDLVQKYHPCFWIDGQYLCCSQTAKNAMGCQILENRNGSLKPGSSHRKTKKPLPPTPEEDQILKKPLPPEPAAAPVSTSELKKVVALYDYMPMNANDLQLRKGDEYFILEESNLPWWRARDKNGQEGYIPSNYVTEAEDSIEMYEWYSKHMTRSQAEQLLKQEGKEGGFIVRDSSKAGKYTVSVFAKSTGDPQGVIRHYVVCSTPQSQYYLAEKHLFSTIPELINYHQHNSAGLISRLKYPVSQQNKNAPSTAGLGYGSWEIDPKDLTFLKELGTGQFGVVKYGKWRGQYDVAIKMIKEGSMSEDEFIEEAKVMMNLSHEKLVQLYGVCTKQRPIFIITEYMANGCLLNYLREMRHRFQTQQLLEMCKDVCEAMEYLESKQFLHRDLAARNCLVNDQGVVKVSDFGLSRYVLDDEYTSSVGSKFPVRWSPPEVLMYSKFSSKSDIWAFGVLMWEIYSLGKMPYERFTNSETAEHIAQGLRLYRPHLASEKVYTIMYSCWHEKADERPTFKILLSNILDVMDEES
DC50 (BTK; [1]) [nM],Dmax (BTK; [2]) [%],Dmax (BTK) [%],DC50 (BTK; BTK degradation) [nM],SMILES,IC50 (Mino cells; MINO) [nM],IC50 (JeKo-1 cells) [nM],IC50 (Mino cells) [nM]
< 10,> 90,,,"Nc1ncnc2c1c(-c1ccc(Oc3ccccc3)cc1)nn2C1CCN(CCCN2CCC(CN3CCC(c4ccc5c(c4)oc(=O)n5C4CCC(=O)NC4=O)CC3)CC2)CC1 (centres unmarked) [Compound 546, 3-(6-(1-((1-(3-(4-(4-amino-3-(4-phenoxyphenyl)-1H-pyrazolo[3,4-d]pyrimidin-1-yl)piperidin-1-yl)propyl)piperidin-4-yl)methyl)piperidin-4-yl)-2-oxobenzo[d]oxazol-3(2H)-yl)piperidine-2,6-dione]",1000 to 10000,< 1000,
< 10,> 90,,,"Nc1ncnc2c1c(-c1ccc(Oc3ccccc3)cc1)nn2[C@@H]1CCCN(C2CN(C(=O)N3CCC(N4CCN(c5ccc6c(c5)C(=O)N(C5CCC(=O)NC5=O)C6=O)CC4)CC3)C2)C1 (stereo partly drawn) [Compound 481, 5-(4-(1-(3-((R)-3-(4-amino-3-(4-phenoxyphenyl)-1H-pyrazolo[3,4-d]pyrimidin-1-yl)piperidin-1-yl)azetidin-1-carbonyl)piperidin-4-yl)piperazin-1-yl)-2-(2,6-dioxopiperidin-3-yl)isoindoline-1,3-dione]",1000 to 10000,1000 to 10000,
< 10,> 90,,,"Nc1ncnc2c1c(-c1ccc(Oc3ccccc3)cc1)nn2[C@@H]1CCCN(C(=O)N2CC(N3CCN(c4ccc5c(c4)CN(C4CCC(=O)NC4=O)C5=O)CC3)C2)C1 (stereo partly drawn) [Compound 488, 3-(5-(4-(1-((R)-3-(4-amino-3-(4-phenoxyphenyl)-1H-pyrazolo[3,4-d]pyrimidin-1-yl)piperidine-1-carbonyl)azetidin-3-yl)piperazin-1-yl)-1-oxoisoindolin-2-yl)piperidine-2,6-dione]",< 1000,< 1000,
,,> 75,10 to 50,"NC(=O)c1c(-c2ccc(Oc3ccccc3)cc2)nn2c1NCC[C@H]2C1CCN(C(=O)N2CCN(CCC3CCN(c4ccc5c(c4)C(=O)N(C4CCC(=O)NC4=O)C5=O)CC3)CC2)CC1 (stereo partly drawn) [Compound 299, (7S)-7-(1-(4-(2-(1-(2-(2,6-dioxopiperidin-3-yl)-1,3-dioxoisoindolin-5-yl)piperidin-4-yl)ethyl)piperazine-1-carbonyl)piperidin-4-yl)-2-(4-phenoxyphenyl)-4,5,6,7-tetrahydropyrazolo[1,5-a]pyrimidine-3-carboxamide]",1000 to 10000,1000 to 10000,
< 10,> 90,,,"Nc1ncnc2c1c(-c1ccc(Oc3ccccc3)cc1)nn2C1CCN(CC2CC(N3CCN(c4ccc5c(c4)CN(C4CCC(=O)NC4=O)C5=O)CC3)C2)CC1 (centres unmarked) [Compound 531, 3-(5-(4-(3-((4-(4-amino-3-(4-phenoxyphenyl)-1H-pyrazolo[3,4-d]pyrimidin-1-yl)piperidin-1-yl)methyl)cyclobutyl)piperazin-1-yl)-1-oxoisoindolin-2-yl)piperidine-2,6-dione]",< 1000,< 1000,
> 50,> 50,,,"Nc1ncnc2c1c(-c1ccc(Oc3ccccc3)cc1)nn2C1CCN(CCCCC#Cc2ccc(N3CCC(=O)NC3=O)cc2)CC1 [Compound 539, 1-(4-(6-(4-(4-amino-3-(4-phenoxyphenyl)-1H-pyrazolo[3,4-d]pyrimidin-1-yl)piperidin-1-yl)hex-1-yn-1-yl)phenyl)dihydropyrimidine-2,4(1H,3H)-dione]",> 10000,> 10000,
,,> 90,< 10,"NC(=O)c1c(-c2ccc(Oc3ccccc3)cc2)nn2c1NCC[C@H]2C1CCN(C2CCN(C(=O)N3CCC(N4CCN(c5ccc6c(c5)C(=O)N(C5CCC(=O)NC5=O)C6=O)CC4)CC3)CC2)CC1 (stereo partly drawn) [Compound 381, (7S)-7-(1′-(4-(4-(2-(2,6-dioxopiperidin-3-yl)-1,3-dioxoisoindolin-5-yl)piperazin-1-yl)piperidine-1-carbonyl)-[1,4′-bipiperidin]-4-yl)-2-(4-phenoxyphenyl)-4,5,6,7-tetrahydropyrazolo[1,5-a]pyrimidine-3-carboxamide]",< 1000,< 1000,
10 to 50,> 90,,,"Nc1ncnc2c1c(-c1ccc(Oc3ccccc3)cc1)nn2C1CCN(CC2CCN(CC3CN(CC4CN(c5ccc6c(c5)CN(C5CCC(=O)NC5=O)C6=O)C4)C3)C2)CC1 (centres unmarked) [Compound 428, 3-(5-(3-((3-((3-((4-(4-amino-3-(4-phenoxyphenyl)-1H-pyrazolo[3,4-d]pyrimidin-1-yl)piperidin-1-yl)methyl)pyrrolidin-1-yl)methyl)azetidin-1-yl)methyl)azetidin-1-yl)-1-oxoisoindolin-2-yl)piperidine-2,6-dione]",1000 to 10000,1000 to 10000,
,,> 75,10 to 50,"Nc1ncnc2c1c(-c1ccc(Oc3ccccc3)cc1)nn2C1CCN(CC2CCN(CCCN3CCC(c4ccc5c(c4)C(=O)N(C4CCC(=O)NC4=O)C5=O)CC3)CC2)CC1 (centres unmarked) [Compound 209, 5-(1-(3-(4-((4-(4-amino-3-(4-phenoxyphenyl)-1H-pyrazolo[3,4-d]pyrimidin-1-yl)piperidin-1-yl)methyl)piperidin-1-yl)propyl)piperidin-4-yl)-2-(2,6-dioxopiperidin-3-yl)isoindoline-1,3-dione]",> 10000,> 10000,
,,> 75,> 50,"NC(=O)c1c(-c2ccc(Oc3ccccc3)cc2)nn2c1NCCC2C1CCN(CC2CCN(CCN3CCN(c4ccc5c(c4)C(=O)N(C4CCC(=O)NC4=O)C5=O)CC3)CC2)CC1 (centres unmarked) [Compound 315, 7-(1-((1-(2-(4-(2-(2,6-dioxopiperidin-3-yl)-1,3-dioxoisoindolin-5-yl)piperazin-1-yl)ethyl)piperidin-4-yl)methyl)piperidin-4-yl)-2-(4-phenoxyphenyl)-4,5,6,7-tetrahydropyrazolo[1,5-a]pyrimidine-3-carboxamide]",1000 to 10000,1000 to 10000,
> 50,> 50,,,"Nc1ncnc2c1c(-c1ccc(Oc3ccccc3)cc1)nn2C1CCN(CCCC#Cc2ccc(N3CCC(=O)NC3=O)cc2)CC1 [Compound 538, 1-(4-(5-(4-(4-amino-3-(4-phenoxyphenyl)-1H-pyrazolo[3,4-d]pyrimidin-1-yl)piperidin-1-yl)pent-1-yn-1-yl)phenyl)dihydropyrimidine-2,4(1H,3H)-dione]",> 10000,> 10000,
,,> 75,10 to 50,"Nc1ncnc2c1c(-c1ccc(Oc3ccccc3)cc1)nn2C1CCN(C2CCN(CCN3CCN(c4ccc5c(c4)CN(C4CCC(=O)NC4=O)C5=O)CC3)CC2)CC1 (centres unmarked) [Compound 218, 3-(5-(4-(2-(4-(4-amino-3-(4-phenoxyphenyl)-1H-pyrazolo[3,4-d]pyrimidin-1-yl)-[1,4′-bipiperidin]-1′-yl)ethyl)piperazin-1-yl)-1-oxoisoindolin-2-yl)piperidine-2,6-dione]",1000 to 10000,< 1000,
10 to 50,> 90,,,"Nc1ncnc2c1c(-c1ccc(Oc3ccccc3)cc1)nn2C1CCN(CCCN2CCC(CN3CCC(c4ccc(N5CCC(=O)NC5=O)cc4)CC3)CC2)CC1 [Compound 555, 1-(4-(1-((1-(3-(4-(4-amino-3-(4-phenoxyphenyl)-1H-pyrazolo[3,4-d]pyrimidin-1-yl)piperidin-1-yl)propyl)piperidin-4-yl)methyl)piperidin-4-yl)phenyl)dihydropyrimidine-2,4(1H,3H)-dione]",< 1000,< 1000,
,,> 90,10 to 50,"NC(=O)c1c(-c2ccc(Oc3ccccc3)cc2)nn2c1NCCC2C1CCN(C2CCN(CC3CCN(c4ccc5c(c4)C(=O)N(C4CCC(=O)NC4=O)C5=O)CC3)CC2)CC1 (centres unmarked) [Compound 305, 7-(1′-((1-(2-(2,6-dioxopiperidin-3-yl)-1,3-dioxoisoindolin-5-yl)piperidin-4-yl)methyl)-[1,4′-bipiperidin]-4-yl)-2-(4-phenoxyphenyl)-4,5,6,7-tetrahydropyrazolo[1,5-a]pyrimidine-3-carboxamide]",1000 to 10000,1000 to 10000,
> 50,> 50,,,"NC(=O)c1c(-c2ccc(Oc3ccccc3)cc2)nn2c1NCC[C@H]2C1CCN(CC2CCN(C(=O)N3CCN(c4ccc5c(c4)CN(C4CCC(=O)NC4=O)C5=O)CC3)CC2)CC1 (stereo partly drawn) [Compound 398, (7S)-7-(1-((1-(4-(2-(2,6-dioxopiperidin-3-yl)-1-oxoisoindolin-5-yl)piperazine-1-carbonyl)piperidin-4-yl)methyl)piperidin-4-yl)-2-(4-phenoxyphenyl)-4,5,6,7-tetrahydropyrazolo[1,5-a]pyrimidine-3-carboxamide]",> 10000,> 10000,
< 10,> 90,,,"Nc1ncnc2c1c(-c1ccc(Oc3ccccc3)cc1)nn2C1CCN(CC2CN(C[C@H]3CCN(c4ccc5c(c4)C(=O)N(C4CCC(=O)NC4=O)C5=O)C3)C2)CC1 (stereo partly drawn) [Compound 443a, 5-((R)-3-((3-((4-(4-amino-3-(4-phenoxyphenyl)-1H-pyrazolo[3,4-d]pyrimidin-1-yl)piperidin-1-yl)methyl)azetidin-1-yl)methyl)pyrrolidin-1-yl)-2-(2,6-dioxopiperidin-3-yl)isoindoline-1,3-dione]",< 1000,< 1000,

SMILES,DC50 (BTK; [1]) [nM],Dmax (BTK; [2]) [%],Dmax (BTK) [%],DC50 (BTK; BTK degradation) [nM],IC50 (Mino cells; MINO) [nM],IC50 (JeKo-1 cells) [nM],IC50 (Mino cells) [nM]
"Nc1ncnc2c1c(-c1ccc(Oc3ccccc3)cc1)nn2C1CCN(CCN2CCC(CN3CCN(c4ccc5c(c4)C(=O)N(C4CCC(=O)NC4=O)C5=O)CC3)CC2)CC1 (centres unmarked) [Compound 453, 5-(4-((1-(2-(4-(4-amino-3-(4-phenoxyphenyl)-1H-pyrazolo(3,4-d)pyrimidin-1-yl)piperidin-1-yl)ethyl)piperidin-4-yl)methyl)piperazin-1-yl)-2-(2,6-dioxopiperidin-3-yl)isoindoline-1,3-dione]",10 to 50,> 90,,,,1000 to 10000,1000 to 10000
